“Also recorded” adds a separate entry of the source. Where two headings read alike, the source gives them in different places.
How the values were obtained:
[1] = system: influenza A H1N1 (A/PR/8/34 virus); test: cytopathic effect (CPE) inhibition assay in MDCK cells; assay type: cell-based
[2] = system: NF-κB activation; test: NF-κB-driven luciferase reporter assay in TNF-α-induced HEK293 cells; assay type: cell-based, Human; conditions: luciferase activity, 20 ng/mL TNF-α, compound 100, 50, 25 or 12.5 μM, 24 h, FIGS. 1 to 4
[3] = system: influenza virus; test: NF-κB signalling inhibition, effect on influenza virus titers (in vitro and in vivo)

Row | Compound | IC50 ([1]; Influenza A virus, MDCK, 48 h) [µM] | other results
1 | CC(=O)OC[C@H](Cc1ccccc1)NC(=O)[C@H](Cc1ccccc1)NC(=O)c1ccccc1 [Compound 1, (S)-2-((S)-2-benzamido-3-phenylpropanamido)-3-phenylpropyl acetate, reference compound] | 74.3 | –
2 | CC(=O)OC[C@H](Cc1ccccc1)NC(=O)[C@H](Cc1ccccc1)NC(=O)c1ccc(F)cc1 [Compound 3, (S)-2-((S)-2-(4-fluorobenzamido)-3-phenylpropanamido)-3-phenylpropyl acetate] | 42.4 | –
3 | CC(=O)OC[C@H](Cc1ccc(F)cc1)NC(=O)[C@H](Cc1ccccc1)NC(=O)c1ccccc1 [Compound 4, (S)-2-((S)-2-benzamido-3-phenylpropanamido)-3-(4-fluorophenyl)propyl acetate] | 29.6 | –
4 | CC(=O)OC[C@H](Cc1ccccc1)NC(=O)[C@H](Cc1ccc(F)cc1)NC(=O)c1ccc(F)cc1 [Compound 5, (S)-2-((S)-2-(4-fluorobenzamido)-3-(4-fluorophenyl)propanamido)-3-phenylpropyl acetate] | 37.9 | –
5 | CC(=O)OC[C@H](Cc1ccc(F)cc1)NC(=O)[C@H](Cc1ccc(F)cc1)NC(=O)c1ccccc1 [Compound 6, (S)-2-((S)-2-benzamido-3-(4-fluorophenyl)propanamido)-3-(4-fluorophenyl)propyl acetate] | 19.2 | inhibition towards NF-κB activation (in words) [2]: strongest inhibition effect; also recorded: strong inhibitory effect
6 | CC(=O)OC[C@H](Cc1ccc(F)cc1)NC(=O)[C@H](Cc1ccccc1)NC(=O)c1ccc(F)cc1 [Compound 7, (S)-2-((S)-2-(4-fluorobenzamido)-3-phenylpropanamido)-3-(4-fluorophenyl)propyl acetate] | < 14.3 | IC50 [1]: 13.5 µM
7 | O=C(N[C@@H](Cc1ccccc1)C(=O)N[C@H](CO)Cc1ccccc1)c1ccccc1 [Compound 9, N—((S)-1-(((S)-1-hydroxy-3-phenylpropan-2-yl)amino)-1-oxo-3-phenylpropan-2-yl)benzamide, reference compound] | 34 | –
8 | O=C(N[C@@H](Cc1ccc(F)cc1)C(=O)N[C@H](CO)Cc1ccccc1)c1ccccc1 [Compound 10, N—((S)-3-(4-fluorophenyl)-1-(((S)-1-hydroxy-3-phenylpropan-2-yl)amino)-1-oxopropan-2-yl)benzamide] | < 14.3 | IC50 [1]: 14.3 µM; anti-influenza virus effect (in words) ([1]; CPE inhibition, MDCK cells, A/PR/8/34 (H1N1)): potent inhibitory effect; inhibition towards NF-κB activation (in words) [2]: potent inhibitory effect; also recorded: strong inhibitory effect; also recorded: excellent inhibitory effects
9 | O=C(N[C@@H](Cc1ccccc1)C(=O)N[C@H](CO)Cc1ccccc1)c1ccc(F)cc1 [Compound 11, 4-fluoro-N—((S)-1-(((S)-1-hydroxy-3-phenylpropan-2-yl)amino)-1-oxo-3-phenylpropan-2-yl)benzamide] | 47 | –
10 | CC(C)(C)c1ccc(S(=O)(=O)/C=C/C#N)cc1 [Compound 11-7085] | – | influenza virus titers (in words) [3]: dramatic reduction of influenza virus titers
11 | O=C(N[C@@H](Cc1ccccc1)C(=O)N[C@H](CO)Cc1ccc(F)cc1)c1ccccc1 [Compound 12, N—((S)-1-(((S)-1-(4-fluorophenyl)-3-hydroxypropan-2-yl)amino)-1-oxo-3-phenylpropan-2-yl)benzamide] | 17.4 | –
12 | O=C(N[C@@H](Cc1ccc(F)cc1)C(=O)N[C@H](CO)Cc1ccccc1)c1ccc(F)cc1 [Compound 13] | < 14.3 | IC50 [1]: 10.5 µM
13 | O=C(N[C@@H](Cc1ccc(F)cc1)C(=O)N[C@H](CO)Cc1ccc(F)cc1)c1ccccc1 [Compound 14, N—((S)-3-(4-fluorophenyl)-1-(((S)-1-(4-fluorophenyl)-3-hydroxypropan-2-yl)amino)-1-oxopropan-2-yl)benzamide] | 19.7 | inhibition towards NF-κB activation (in words) [2]: strongest inhibition effect; also recorded: strong inhibitory effect
14 | O=C(N[C@@H](Cc1ccccc1)C(=O)N[C@H](CO)Cc1ccc(F)cc1)c1ccc(F)cc1 [Compound 15, 4-fluoro-N—((S)-1-(((S)-1-(4-fluorophenyl)-3-hydroxypropan-2-yl)amino)-1-oxo-3-phenylpropan-2-yl)benzamide] | 38.7 | –
15 | CC(=O)Oc1ccccc1C(=O)O [acetylsalicyclic acid (ASA), acetylsalicyclic acid] | – | influenza virus titers (in words) [3]: dramatic reduction of influenza virus titers

Source: patent US11377418B2, “Compounds and methods for treating influenza” (Macau University of Science and Technology, priority 2020, dated 2022)
